ChEMBL document CHEMBL1145722, “Triterpene saponins from Cyclamen mirabile and their biological activities” (1997)
In brackets after ≈: the same amount, converted by molar mass.

How the values were obtained:
Format in all cases: functional
Staphylococcus aureus = assay: Antibacterial activity against Staphylococcus aureus ATCC 29213 by microtiter-tube dilution method
Enterococcus faecalis = assay: Antibacterial activity against Enterococcus faecalis ATCC 29212 by microtiter-tube dilution method
Escherichia coli = assay: Antibacterial activity against Escherichia coli ATCC 25922 by microtiter-tube dilution method
Pseudomonas aeruginosa = assay: Antibacterial activity against Pseudomonas aeruginosa ATCC 27853 by microtiter-tube dilution method
Candida albicans [1] = assay: Antifungal activity against Candida albicans by microtiter-tube dilution method
Pichia kudriavzevii = assay: Antifungal activity against Candida krusei by microtiter-tube dilution method
Candida parapsilosis = assay: Antifungal activity against Candida parapsilosis by microtiter-tube dilution method; conditions: Lodderomyces parapsilosis
Kluyveromyces marxianus = assay: Antifungal activity against Candida pseudotropicalis by microtiter-tube dilution method
Candida albicans [2] = assay: Antifungal activity against Candida stellatoidea by microtiter-tube dilution method
Candida tropicalis = assay: Antifungal activity against Candida tropicalis by microtiter-tube dilution method
Cryptococcus neoformans = assay: Antifungal activity against Cryptococcus neoformans by microtiter-tube dilution method
[3] = Uterocontractile activity in rat uterus assessed as contraction at 7.4 uM relative to acetylcholine
[4] = Uterocontractile activity in rat uterus assessed as contraction at 8.6 uM relative to acetylcholine
[5] = Uterocontractile activity in rat uterus assessed as contraction at 6.5 uM relative to acetylcholine
[6] = Uterocontractile activity in rat uterus assessed as contraction at 7.5 uM relative to acetylcholine
[7] = Uterocontractile activity in rat uterus assessed as contraction at 20 uM relative to acetylcholine
[8] = Uterocontractile activity in rat uterus assessed as contraction at 6.4 uM relative to acetylcholine
[9] = Uterocontractile activity in rat uterus assessed as contraction at 19 uM relative to acetylcholine

Row | SMILES | MIC (Staphylococcus aureus) [µg/mL] | MIC (Enterococcus faecalis) [µg/mL] | MIC (Escherichia coli) [µg/mL] | MIC (Pseudomonas aeruginosa) [µg/mL] | MIC (Candida albicans [1]) [µg/mL] | MIC (Pichia kudriavzevii) [µg/mL] | MIC (Candida parapsilosis) [µg/mL] | MIC (Kluyveromyces marxianus) [µg/mL] | MIC (Candida albicans [2]) [µg/mL] | MIC (Candida tropicalis) [µg/mL] | MIC (Cryptococcus neoformans) [µg/mL] | Activity [3] [%] | Activity [4] [%] | Activity [5] [%] | Activity [6] [%] | Activity [7] [%] | Activity [8] [%] | Activity [9] [%]
1 | C[C@]1(C=O)CC[C@]23CO[C@@]4(CC[C@@H]5[C@@]6(C)CC[C@H](O[C@@H]7OC[C@H](O[C@@H]8O[C@H](CO)[C@@H](O)[C@H](O)[C@H]8O[C@@H]8OC[C@H](O)[C@H](O)[C@H]8O)[C@H](O)[C@H]7O[C@@H]7O[C@H](CO)[C@@H](O)[C@H](O)[C@H]7O)[C@@](C)(CO)[C@@H]6CC[C@@]5(C)[C@]4(C)C[C@H]2O)[C@@H]3C1 [CYCLACOUMIN] | > 400 | > 400 | > 400 | > 400 | 160 (≈ 149 µM) | > 320 | 80 (≈ 74.3 µM) | 160 (≈ 149 µM) | 160 (≈ 149 µM) | 160 (≈ 149 µM) | 80 (≈ 74.3 µM) | 58.2 |  |  |  |  |  | 
2 | CC1(C)[C@@H](O[C@@H]2OC[C@H](O[C@@H]3O[C@H](CO)[C@@H](O)[C@H](O)[C@H]3O)[C@H](O)[C@H]2O[C@@H]2O[C@H](CO)[C@@H](O)[C@H](O)[C@H]2O)CC[C@]2(C)[C@H]3CC[C@]45OC[C@@]6(CC[C@](C)(C=O)C[C@H]64)[C@H](O)C[C@@]5(C)[C@]3(C)CC[C@@H]12 [CYCLAMINORIN] | > 400 | > 400 | > 400 | > 400 | 160 (≈ 172 µM) | > 320 | 80 (≈ 86.1 µM) | 160 (≈ 172 µM) | 160 (≈ 172 µM) | 160 (≈ 172 µM) | 80 (≈ 86.1 µM) |  | 46.2 |  |  |  |  | 
3 | CC1(C)[C@@H](O[C@@H]2OC[C@H](O[C@@H]3O[C@H](CO[C@@H]4O[C@H](CO)[C@@H](O)[C@H](O)[C@H]4O)[C@@H](O)[C@H](O)[C@H]3O[C@@H]3OC[C@H](O)[C@H](O)[C@H]3O)[C@H](O)[C@H]2O[C@@H]2O[C@H](CO)[C@@H](O)[C@H](O)[C@H]2O)CC[C@]2(C)[C@H]3CC=C4[C@@H]5C[C@]6(C)CC[C@]5(COC6=O)[C@H](O)C[C@@]4(C)[C@]3(C)CC[C@@H]12 [MIRABILIN LACTONE] | > 400 | > 400 | > 400 | > 400 |  |  |  |  |  |  |  |  |  | 0.6 |  | 5.7 |  | 
4 | CC1(C)[C@@H](O[C@@H]2OC[C@H](O[C@@H]3O[C@H](CO[C@@H]4O[C@H](CO)[C@@H](O)[C@H](O)[C@H]4O)[C@@H](O)[C@H](O)[C@H]3O[C@@H]3OC[C@H](O)[C@H](O)[C@H]3O)[C@H](O)[C@H]2O[C@@H]2O[C@H](CO)[C@@H](O)[C@H](O)[C@H]2O)CC[C@]2(C)[C@H]3CC=C4[C@@H]5C[C@@](C)(C(=O)O)CC[C@]5(CO)[C@H](O)C[C@@]4(C)[C@]3(C)CC[C@@H]12 [MIRABILIN] | > 400 | > 400 | > 400 | > 400 |  |  |  |  |  |  |  |  |  |  |  |  | 0.7 | 1.1

Now from value to molecule, other results behind:

Row | MIC (Staphylococcus aureus) [µg/mL] | MIC (Enterococcus faecalis) [µg/mL] | MIC (Escherichia coli) [µg/mL] | MIC (Pseudomonas aeruginosa) [µg/mL] | MIC (Candida albicans [1]) [µg/mL] | MIC (Pichia kudriavzevii) [µg/mL] | MIC (Candida parapsilosis) [µg/mL] | MIC (Kluyveromyces marxianus) [µg/mL] | MIC (Candida albicans [2]) [µg/mL] | MIC (Candida tropicalis) [µg/mL] | MIC (Cryptococcus neoformans) [µg/mL] | SMILES | Activity [3] [%] | Activity [4] [%] | Activity [5] [%] | Activity [6] [%] | Activity [7] [%] | Activity [8] [%] | Activity [9] [%]
5 | > 400 | > 400 | > 400 | > 400 |  |  |  |  |  |  |  | CC1(C)[C@@H](O[C@@H]2OC[C@H](O[C@@H]3O[C@H](CO)[C@@H](O)[C@H](O[C@@H]4O[C@H](CO)[C@@H](O)[C@H](O)[C@H]4O)[C@H]3O[C@@H]3OC[C@@H](O)[C@H](O)[C@H]3O)[C@H](O)[C@H]2O[C@@H]2O[C@H](CO)[C@@H](O)[C@H](O)[C@H]2O)CC[C@]2(C)[C@H]3CC[C@]45OC[C@@]6(CC[C@](C)(C=O)C[C@H]64)[C@H](O)C[C@@]5(C)[C@]3(C)CC[C@@H]12 [CYCLAMIN] |  |  | 48.4 |  |  |  | 
6 | > 400 | > 400 | > 400 | > 400 | 160 (≈ 151 µM) | > 320 | 80 (≈ 75.4 µM) | 160 (≈ 151 µM) | 160 (≈ 151 µM) | 160 (≈ 151 µM) | 80 (≈ 75.4 µM) | CC1(C)[C@@H](O[C@@H]2OC[C@H](O[C@@H]3O[C@H](CO)[C@@H](O)[C@H](O)[C@H]3O[C@@H]3OC[C@H](O)[C@H](O)[C@H]3O)[C@H](O)[C@H]2O[C@@H]2O[C@H](CO)[C@@H](O)[C@H](O)[C@H]2O)CC[C@]2(C)[C@H]3CC[C@]45OC[C@@]6(CC[C@](C)(C=O)C[C@H]64)[C@H](O)C[C@@]5(C)[C@]3(C)CC[C@@H]12 [DEGLUCOCYCLAMIN] |  |  |  | 36.7 |  |  | 
7 | > 400 | > 400 | > 400 | > 400 |  |  |  |  |  |  |  | CC1(C)[C@@H](O[C@@H]2OC[C@H](O[C@@H]3O[C@H](CO[C@@H]4O[C@H](CO)[C@@H](O)[C@H](O)[C@H]4O)[C@@H](O)[C@H](O)[C@H]3O[C@@H]3OC[C@H](O)[C@H](O)[C@H]3O)[C@H](O)[C@H]2O[C@@H]2O[C@H](CO)[C@@H](O)[C@H](O)[C@H]2O)CC[C@]2(C)[C@H]3CC[C@]45OC[C@@]6(CC[C@](C)(C=O)C[C@H]64)[C@H](O)C[C@@]5(C)[C@]3(C)CC[C@@H]12 [ISOCYCLAMIN] |  |  | 0.1 |  | 28.3 |  | 
